Source: ChEMBL document CHEMBL4265913, “Role of p53 circuitry in tumorigenesis: A brief review” (Eur J Med Chem, 2018)

Assays:
PC-3 = test: Growth inhibition of human PC3 cells harboring p53 deletion mutant after 4 days by WST8 assay; format: functional, cell-based; conditions: PC-3, 96 h
U2OS = test: Antiproliferative activity against human U2OS cells after 72 hrs by MTT assay; format: functional, cell-based
[1] = biological target: E3 ubiquitin-protein ligase Mdm2 (Homo sapiens, UniProt Q00987); test: Binding affinity to recombinant human MDM2 (1 to 118 residues) expressed in Escherichia coli BL21 (DE3) assessed as reduction in tryptophan fluorescence by microscale thermophoresis method
Chain of E3 ubiquitin-protein ligase Mdm2 (Q00987 whole entry, the tested form may be a part): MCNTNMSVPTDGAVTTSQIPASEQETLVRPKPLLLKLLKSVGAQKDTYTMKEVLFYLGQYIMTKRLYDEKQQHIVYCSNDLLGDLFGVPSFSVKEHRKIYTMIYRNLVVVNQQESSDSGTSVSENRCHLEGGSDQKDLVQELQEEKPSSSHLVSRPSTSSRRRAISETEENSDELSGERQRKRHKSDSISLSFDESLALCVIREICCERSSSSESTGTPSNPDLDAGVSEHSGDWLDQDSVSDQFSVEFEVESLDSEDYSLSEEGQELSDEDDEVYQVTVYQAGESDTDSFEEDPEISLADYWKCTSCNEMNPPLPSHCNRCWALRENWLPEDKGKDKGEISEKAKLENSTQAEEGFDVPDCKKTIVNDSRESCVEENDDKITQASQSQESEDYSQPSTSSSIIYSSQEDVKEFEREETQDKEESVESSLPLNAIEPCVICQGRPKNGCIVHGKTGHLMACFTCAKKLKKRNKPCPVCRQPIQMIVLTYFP

SK-N-SH = test: Antiproliferative activity against human SK-N-SH cells after 72 hrs by XTT assay; format: functional, cell-based
SH-SY5Y = test: Antiproliferative activity against human SH-SY5Y cells after 72 hrs by XTT assay; format: functional, cell-based
IMR-32 = test: Antiproliferative activity against human IMR32 cells after 72 hrs by XTT assay; format: functional, cell-based; conditions: IMR-32, 72 h
IMR-5 = test: Antiproliferative activity against human IMR5 cells after 72 hrs by XTT assay; format: functional, cell-based; conditions: IMR-5, 72 h
[2] = Antiproliferative activity against human LAN5 cells after 72 hrs by XTT assay; format: functional, cell-based; conditions: LA-N-5, 72 h

CN(C)C(=O)[C@@H]1N[C@H](CC(C)(C)C)[C@]2(C(=O)Nc3cc(Cl)ccc32)[C@H]1c1cccc(Cl)c1
IC50 (PC-3): 22500 nM

Clc1ccc(C2N=C(c3ccccc3)c3cc(Cl)ccc3-n3cnnc32)cc1 (stereo not drawn)
IC50 (U2OS): 4170 nM

CN1C(=O)C(Cc2ccc(Cl)cc2)=C(c2c[nH]c3cc(Cl)ccc23)[C@]1(O)Cc1ccc(Cl)cc1
Kd [1]: 500 nM

CC1(C)CCC2(CC1)N[C@H](C(=O)N[C@H]1CC[C@H](C(N)=O)OC1)[C@@H](c1ccnc(Cl)c1F)[C@@]21C(=O)Nc2cc(Cl)ccc21
IC50 (SK-N-SH): 21.9 nM | IC50 (SH-SY5Y): 17.7 nM | IC50 (IMR-32): 52.6 nM | IC50 (IMR-5): 25.7 nM | IC50 [2]: 44.1 nM
